Test results reported in patent US20090208455A1, “Method for Treating Polyglutamine Expansion Neurodegenerative Diseases” (INSERM (Institut National de la Sante et de la Recherche …, priority 2006, published 2009).
“Also recorded” adds a separate entry of the source. Peptide text beside a SMILES is read from it. * marks the point of attachment. Cbz = O=C(OCc1ccccc1)*

Key:
proteasome = assay: Proteasome inhibition by MG132 in COS-7 cells, Western blot of ATXN7; type: cell-based
Method: Cell culture, transfections, MG132, INF and cadmium treatments: COS-7 cells were maintained in DMEM (Invitrogen) supplemented with 5% FBS, and penicillin-streptomycin (100 UI/ml; 100 μg/ml). Cell lines were transfected with Lipofectamine-PLUS reagents (Invitrogen) as prescribed. […] Recombinant human Interferon beta (Hu-IFN-b) is obtained from human fibroblast mRNA expressed in E. Coli. Its molecular weight is approximately 20 kDa. Recombinant human Interferon beta was supplied as a solution at 1×10^6 units/ml in PBS (phosphate buffered saline) containing 0.1% BSA (bovine serum albumin) and 10% glycerol. It was purchased from Sigma-Aldrich. Recombinant human Interferon beta (2000 UI/ml) was added to the culture medium after plating and during transfection. Cadmium chloride (Cadmium chloride hemi pentahydrate, Sigma Aldrich) (from 0.25 μM to 2 μM) was added during transfection. For proteasome inhibition, 5 μM MG132 was applied for 12 h, 25 h post-transfection. Cultures of post-mitotic neurons were prepared from the cortex of embryonic day 16 Wistar rats. Cells were extracted from the embryos and cultured with 1 μM MK801. Glial cell proliferation was stopped by adding 1 μM cytosine arabinoside after 3 h. Primary cultures of cortical neurons were transfected 96 h after plating using Lipofectamine 2000 reagent (Invitrogen) according to the manufacturer's instructions.
Western blot and filter retardation assay: Cells were harvested in PBS, pelleted and lysed 30 min on ice in lysis buffer containing 50 mM Tris pH 8.8, 100 mM NaCl, 5 mM MgCl2, 0.5% NP40, 1 mM EDTA and 250 UI/ml benzonase (Merck) supplemented with a cocktail of protease inhibitors (Complete and Pefabloc, Roche). Total extracts were centrifuged at 13000 rpm for 10 min at 4° C. to separate soluble proteins from aggregates and membranes. Supernatants (30 μg protein) were analyzed by Western blot. Pellets were washed with PBS and further incubated 30 min on ice in a pellet buffer containing 20 mM Tris pH 8.0, 15 mM MgCl2 and 250 UI/ml benzonase. Protein concentrations (supernatant and pellet) were determined by Bio-Rad assay. […]

endogenous PML bodies = assay: Immunofluorescence of endogenous PML bodies in cadmium-treated cells expressing FL-74Q; type: cell-based; settings: 2 μM cadmium
Method: (§1) Cell culture, transfections, MG132, INF and cadmium treatments: COS-7 cells were maintained in DMEM (Invitrogen) supplemented with 5% FBS, and penicillin-streptomycin (100 UI/ml; 100 μg/ml). Cell lines were transfected with Lipofectamine-PLUS reagents (Invitrogen) as prescribed. Unless otherwise specified, cells were harvested or analyzed by immunofluorescence 40-45 h post-transfection. β-INF. Recombinant human Interferon beta (Hu-IFN-b) is obtained from human fibroblast mRNA expressed in E. Coli. Its molecular weight is approximately 20 kDa. Recombinant human Interferon beta was supplied as a solution at 1×10^6 units/ml in PBS (phosphate buffered saline) containing 0.1% BSA (bovine serum albumin) and 10% glycerol. It was purchased from Sigma-Aldrich. Recombinant human Interferon beta (2000 UI/ml) was added to the culture medium after plating and during transfection. Cadmium chloride (Cadmium chloride hemi pentahydrate, Sigma Aldrich) (from 0.25 μM to 2 μM) was added during transfection. For proteasome inhibition, 5 μM MG132 was applied for 12 h, 25 h post-transfection. Cultures of post-mitotic neurons were prepared from the cortex of embryonic day 16 Wistar rats. Cells were extracted from the embryos and cultured with 1 μM MK801. Glial cell proliferation was stopped by adding 1 μM cytosine arabinoside after 3 h. […]

mutant ATXN7 aggregates = assay: Filter retardation assay of SDS-insoluble material in COS-7 cells; type: cell-based; settings: 0.25 to 2 μM cadmium, filter assay on pellet fraction
Method: as §1, with “Unless otherwise specified, cells were harvested or analyzed by immunofluorescence 40-45 h post-transfection. β-INF.” left out, “transfection.” for “transfection. For proteasome inhibition, 5 μM MG132 was applied for 12 h, 25 h post-transfection. Cultures of post-mitotic neurons were prepared from the cortex of embryonic day 16 Wistar rats. Cells were extracted from the embryos and cultured with 1 μM MK801. Glial cell proliferation was stopped by adding 1 μM cytosine arabinoside after 3 h.”
Western blot and filter retardation assay: Cells were harvested in PBS, pelleted and lysed 30 min on ice in lysis buffer containing 50 mM Tris pH 8.8, 100 mM NaCl, 5 mM MgCl2, 0.5% NP40, 1 mM EDTA and 250 UI/ml benzonase (Merck) supplemented with a cocktail of protease inhibitors (Complete and Pefabloc, Roche). […] Supernatants (30 μg protein) were analyzed by Western blot. […] Protein concentrations (supernatant and pellet) were determined by Bio-Rad assay. […]

SCA7 KI mice [1] = assay: Beam walking test in SCA7 knock-in mice; type: in vivo; settings: 10.000 Units i.p. 3 times a week from 5 weeks of age; effect from 12 weeks of age, p inf to 0.005
Method: This test was performed each week, with 3 sessions per animal (maximal time 1 min.). The number of errors made on the wooden beam by each mouse, and the traveled total distance were noted. A mean of the 3 assays was calculated.
(§2) The inventors use the Spinocerebellar ataxia 7 (SCA7) knock-in mouse model developed in Huda Zhoghbi's lab (Yoo et al, 2003). This mouse model SCAT 266Q/5Q reproduces features of an infantile SCAT disease. The phenotype begins at 5 weeks of age with weight loss and then visual impairment. At about 8 weeks their locomotor functions are affected, and by 13-14 weeks of age the ataxic phenotype is severe with tremor, gait ataxia, muscular mass loss, kyphosis. The mice die between 14 and 19 weeks of age. In this severely affected mice model the inventors undertook to test a treatment with murine beta-IFN (Sigma).
Protocol: 3 injections (intraperitoneally) per week, each of 10.000 Units murine beta IFN per mouse (from Sigma). Starting at 5 weeks of age, and during 10 weeks or more, until the animals die. […]
The mouse is placed at the end of the beam, at segment number 1 and the task is to walk towards the box placed at the other end. […] During the task, the inventors carefully monitored the numbers of errors done with the paws on the beam (front or rear paws). The ratio number of errors/distance traveled (EID) is calculated for each animal.

SCA7 KI mice [2] = assay: Locotronic test in SCA7 knock-in mice; type: in vivo; settings: treated KI versus untreated KI
Method: Mice have been subjected to crossing the Locotronic apparatus, each week, 3 sessions with 15 min pause between sessions. FIG. 7A indicates the time in seconds for crossing the Locotronic and FIG. 7B indicates the numbers of errors (front paws, rear paws) made by the mice during the task. A mean value was calculated for the 3 sessions, for each group of animals.
as §2, with “(Sigma). […]” for “(Sigma).”
The Locotronic is designed to evaluated fine motor coordination in mice crossing the apparatus. […] On the side of the apparatus there are infra red sensors which measure errors made with front paws and rear paws (differentially scored). […] All the errors detected by the sensors are saved in a file as well as the time needed for crossing. […]

[3] = system: wild type mice (C57 black6); assay: Toxicity of beta-IFN injection protocol in wild type mice; type: in vivo; settings: 10.000 Units per mouse, 3 injections per week intraperitoneally, 12 weeks, versus saline
Excerpt: (§3) Protocol: 3 injections (intraperitoneally) per week, each of 10.000 Units murine beta IFN per mouse (from Sigma). Starting at 5 weeks of age, and during 10 weeks or more, until the animals die.
The inventors first tested the toxicity of such a treatment, as no publication described a treatment of young animals with IFN. In adult mice affected by multiple sclerosis and receiving injections of beta-IFN, the doses were 10.000 Units per mouse, over 14 weeks. The inventors chose to use the same doses and tested toxicity of the protocol in wild type mice of the same strain (C57 black6) than the KI mice, during 12 weeks. […] The inventors concluded that the dose used was not toxic, and decided to use 10.000 Units, 3 times a week, in the SCAT mouse model.

SCA7 KI mice [4] = assay: Life time of SCA7 knock-in mice; type: in vivo
Excerpt: as §2, §3

[5] = 5 μM MG132, COS-7 cells, Western blot

`CC(C)C[C@@H](C=O)NC(=O)[C@H](CC(C)C)NC(=O)[C@H](CC(C)C)NC(=O)OCc1ccccc1` [MG132] (Cbz-Leu-Leu-Leu-aldehyde) was tested, and the “amount of mutant ATXN7 FL-74Q coexpressed with PML IV” value (proteasome; [5]) was “significantly increases; also recorded: increased”, the “amount of mutant ATXN7 FL-74Q expressed alone (absence of PML IV)” value (proteasome; [5]) was “significantly increases; also recorded: increased” and the “PML-dependent degradation of ATXN7 induced by β-INF” value (proteasome; MG132 with β-INF treatment, COS-7 cells) was “inhibited”.
`O.O.O.O.O.[Cd+2].[Cd+2].[Cl-].[Cl-].[Cl-].[Cl-]` [cadmium, Cadmium chloride hemi pentahydrate] was tested, and the “endogenous PML bodies” value (endogenous PML bodies) was “totally disrupted” and the “aggregation of mutant ATXN7” value (mutant ATXN7 aggregates) was “dose-dependent”.
“beta-IFN: murine beta-IFN (Sigma) injected intraperitoneally in mice” was tested, and the “locomotor coordination (ratio number of errors/traveled distance)” value (SCA7 KI mice [1]) was “improves the locomotor coordination”, the “time for crossing the Locotronic” value (SCA7 KI mice [2]; 10.000 Units i.p. 3 times a week from 5 weeks of age) was “slower than the beta-interferon treated KI” and the “number of errors in the Locotronic” value (SCA7 KI mice [2]; 10.000 Units i.p. 3 times a week, at 14 weeks of age) was “tendency for the treated KI to make less errors”. The adverse effects [3] was “did not observe adverse effects”, the mean life time (SCA7 KI mice [4]; 10.000 Units i.p. 3 times a week from 5 weeks of age, untreated SCA7 KI 15.1 weeks) was 16.25 weeks and the “extension of the life time” value (SCA7 KI mice [4]; treated versus untreated SCA7 KI mice) was 7.5%.
